The results in this text go back to publication PMC10619443, “Structural snapshots of Mycobacterium tuberculosis enolase reveal dual mode of 2PG binding and its implication in enzyme catalysis” (IUCrJ, 2023).

The structures appear in SMILES notation.

The assay concerns the target T1, MtEno (Mycobacterium tuberculosis, UniProt P9WNL1).
T1 construct: gene eno

T1 sequence (P9WNL1 whole entry): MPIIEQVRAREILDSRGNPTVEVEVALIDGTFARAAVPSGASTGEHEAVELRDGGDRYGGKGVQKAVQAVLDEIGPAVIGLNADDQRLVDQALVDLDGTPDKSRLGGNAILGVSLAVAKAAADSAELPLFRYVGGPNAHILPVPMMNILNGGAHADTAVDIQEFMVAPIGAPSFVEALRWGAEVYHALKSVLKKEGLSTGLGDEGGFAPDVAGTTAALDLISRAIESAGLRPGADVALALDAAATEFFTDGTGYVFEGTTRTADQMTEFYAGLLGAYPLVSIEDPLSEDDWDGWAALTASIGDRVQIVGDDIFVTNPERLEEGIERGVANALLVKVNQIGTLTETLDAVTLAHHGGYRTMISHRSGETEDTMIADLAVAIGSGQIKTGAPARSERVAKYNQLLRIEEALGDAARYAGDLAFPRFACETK

Turning to `O=C(O)[C@@H](CO)OP(=O)(O)O` [2PG, 2-phosphoglycerate], the X-ray crystal structure entry was “Of the two structures of MtEno-2PG, one harbored the 2PG-canonical pose”.
